The values that follow come from patent US20110237508A1, “Peptide Formulations and Uses Thereof” (RIJKSUNIVERSITEIT GRONINGEN, priority 2008, published 2011).

For data set [1] the following is noted: oral tablets, simulated tropical conditions; cited from earlier work.
For data set [2] the following is noted: cited from earlier work.
The nature of data set [3]: Precipitation of oxytocin in citrate buffer with Ca2+. The data set is classed as physicochemical. The following applies: 100 mM Ca2+. The protocol: (§1) Citrate buffer (CB) was used at concentrations of 5, 10 or 50 mM. […] Samples of each formulation were stored for 4 weeks at 4° C. (control) or 55° C. (test). Thereafter, all samples were stored under cooled conditions (2-8° C.) before analysis by RP-HPLC and HP-SEC. Effects on stability were determined by measuring the recovery of oxytocin and the percentage of oxytocin-monomers. The results are presented in FIGS. 4A and 4B (citrate buffer with Ca^2+), 5A and 5B (citrate buffer with Mg^2+) and 6A and 6B (citrate buffer with Zn^2+).

A short description of data set [4]: Oxytocin monomer recovery by HP-SEC after 4 weeks storage at 4 or 55° C. The note with it: pH 4.5, 4 weeks. It counts as physicochemical. The protocol: (§2) As shown herein below, the stabilizing effect of the combination of a buffer and at least one source of divalent metal ions at a concentration of at least 2 mM in an aqueous oxytocin formulation was determined by measuring the recovery of oxytocin (remaining oxytocin as % of initial amount), the amount of oxytocin-monomers (% of total remaining oxytocin) and/or the level of aggregation (aggregated oxytocin as % of total remaining oxytocin) upon prolonged storage at elevated (e.g. 55° C.) temperatures. These parameters can be assessed by using any method for analysis deemed suitable by a person skilled in the art. Examples of suitable methods for analysis include, but are not limited to, reversed-phase high-performance liquid chromatography (RP-HPLC) and high-performance size exclusion chromatography (HP-SEC). Thus, suitable concentrations of divalent metal ions to achieve the stabilizing effect at elevated temperatures can be determined by those skilled in the art. They may vary, e.g. depending on the composition of the formulation or its intended application. In one embodiment, a formulation comprises oxytocin or vasopressin and at least 2 mM, preferably at least 5, more preferably at least 10 mM divalent metal ions and a buffer. In another embodiment, a pH-buffered formulation comprises divalent metal ions in a concentration of up to 150 mM, preferably up to 100 mM, more preferably up to 50 mM. For example, a formulation comprises divalent metal ions in a concentration between 5 and 150 mM, preferably between 10 and 100 mM, more preferably between 10 and 50 mM. In one embodiment, between 2 and 150 mM divalent metal ions, preferably 5-100 mM, such as 10, 20, 25, 30, 40 or 50 mM, and a buffer are used to stabilize an aqueous peptide formulation. In another embodiment, a divalent metal ion concentration in the range from 20 to 100 mM is used, like 30-100 mM, 40-80 mM or 50-70 mM. Other suitable ranges include between 2 and 50 mM, between 30 and 60 mM and between 40 and 70 mM divalent metal ions.
Divalent metal ions (Ca^2+, Mg^2+ and Zn^2+) were added as metal chloride salts (MC12) to a non-buffered formulation comprising oxytocin and pure water (W). The divalent metal ions were used at concentrations of 0, 2, 5, 10 and 50 mM. […] Effects on stability were determined by measuring the recovery of oxytocin and the percentage of oxytocin-monomers.
Samples of each formulation were stored for 4 weeks at 4° C. […] Effects on stability were determined by measuring the recovery of oxytocin and the percentage of oxytocin-monomers.
The thermal stability of oxytocin in the presence of combinations of a buffer and monovalent metal ions was investigated. […] Effects on stability were determined by measuring the recovery of oxytocin and the percentage of oxytocin-monomers. […]
(In gel filtration, larger molecules generally elute earlier.)

Data set [5] can be described thus: Oxytocin recovery by RP-HPLC after 4 weeks storage at 4 or 55° C. It counts as physicochemical. The following applies: pH 4.5, 4 weeks. The protocol:
as §2, with “ions. […]” for “ions.”
Samples of each formulation were stored for 4 weeks at 4° C. (control) or 55° C. (test). Thereafter, all samples were stored under cooled conditions (2-8° C.) before analysis by RP-HPLC and HP-SEC. Effects on stability were determined by measuring the recovery of oxytocin and the percentage of oxytocin-monomers.
The thermal stability of oxytocin in the presence of combinations of a buffer and monovalent metal ions was investigated. Citrate buffer (CB), acetate buffer (AC) or aspartate buffer (AP) was used at a concentration of 10 mM. Monovalent metal ions Na^+ and K^+ were added in the form of their chloride salt (NaCl and KCl) and used in final concentrations of 10 and 20 mM. […] Samples of each formulation were stored for 4 weeks at 4° C. (control) or 55° C. (test). Thereafter, all samples were stored under cooled conditions (2-8° C.) before analysis by RP-HPLC and HP-SEC. Effects on stability were determined by measuring the recovery of oxytocin and the percentage of oxytocin-monomers.
as §1, with “concentrations of 5, 10 or 50 mM. Divalent metal ions (Ca^2+, Mg^2+ and Zn^2+) were added in the form of their chloride salt (CaCl2, MgCl2 and ZnCl2) and used in final concentrations of 0, 2, 5, 10” for “concentrations of 5, 10”
Divalent metal ions (Ca^2+, Mg^2+ and Zn^2+) were added in the form of their chloride salt (CaCl2, MgCl2 and ZnCl2) and used in final concentrations of 0, 2, 5, 10 or 50 mM. […] Samples of each formulation were stored for 4 weeks at 4° C. […]

Data set [6] in a line: Long-term stability study at 40° C., oxytocin recovery by RP-HPLC. It counts as physicochemical. The following applies: 10 mM citrate buffer and 50 mM Ca2+, pH 4.5, 6 months at 40° C. The protocol: (§3) A long-term stability study was performed to assess the thermal stability of pH-buffered oxytocin formulations comprising divalent metal ions over prolonged periods. Citrate buffer (CB) was added in concentrations of 5, 10 or 50 mM to formulations comprising 0.1 mg/ml oxytocin and 0, 10 or 50 mM Ca^2+ (CaCl2). […] Samples of each formulation were stored for 1, 2, 3 or 6 months at 40° C. Thereafter, all samples were stored under cooled conditions (2-8° C.) before analysis by RP-HPLC and HP-SEC. Effects on stability were determined by measuring the recovery of oxytocin and the percentage of oxytocin-monomers.

A short description of data set [7]: Long-term stability study at 40° C., oxytocin monomers by HP-SEC. The following applies: 10 mM citrate buffer and 50 mM Ca2+, pH 4.5, 6 months at 40° C. The data set is classed as physicochemical. The protocol: as §3

Turning to `CC[C@H](C)[C@@H]1NC(=O)[C@H](Cc2ccc(O)cc2)NC(=O)CCSSC[C@@H](C(=O)N2CCC[C@H]2C(=O)N[C@@H](CC(C)C)C(=O)NCC(N)=O)NC(=O)[C@H](CC(N)=O)NC(=O)[C@H](CCC(N)=O)NC1=O` [desamino-oxytocin], in data set [1], the stability of tablets result is on record as “not stable”.

As to `C[C@@H](CO)NC(=O)[C@@H]1C=C2c3cccc4[nH]cc(c34)C[C@H]2N(C)C1` [ergometrine], the stability of tablets entry in data set [1] was “not stable”.

On to `CC[C@H](C)[C@@H]1NC(=O)[C@H](Cc2ccc(O)cc2)NC(=O)[C@@H](N)CSSC[C@@H](C(=O)N2CCC[C@H]2C(=O)N[C@@H](CC(C)C)C(=O)NCC(N)=O)NC(=O)[C@H](CC(N)=O)NC(=O)[C@H](CCC(N)=O)NC1=O` [oxytocin], for which the “effect on oxytocin stability” value in data set [2] (dissolved in commercially obtainable lactated Ringer's solution) is “no effect on oxytocin stability at all”. Also, in data set [2] (in Ringer's, room temperature, 0.08 IU/ml), the stability of oxytocin entry is given as “already compromised after 30 days”. The precipitation entry in data set [3] was “precipitates were observed”. In addition, the “remaining oxytocin in monomeric form” value in data set [4] (10 mM acetate buffer & 10 mM Na+, 55° C.) was “around 30%”. In data set [4] (citrate buffer with Ca2+, 55° C.), the “percentage of oxytocin monomers” value is listed as “up to 80%”. Moreover, the “percentage of remaining oxytocin monomers” value in data set [4] (citrate buffer with Zn2+, 55° C.) was “up to 90%”. In addition, the remaining oxytocin-monomers entry in data set [4] (non-buffered pure water with divalent metal ions, 4 or 55° C.) is “loss of monomers was only prevented at 4 °C in the presence of Ca^2+ or Zn^2+”. In addition, in data set [5] (10 mM acetate buffer & 10 mM Na+), the “original quantity of oxytocin recovered” value is no more than 35%. In addition, the “remaining percentage of oxytocin” value in data set [5] (10 mM acetate buffer with 50 mM Ca2+, 50 mM Mg2+ or 50 mM Zn2+) is “Small increases”. The stabilizing effect result is “only smaller effects” in data set [5] (10 mM aspartate buffer with Ca2+ or Mg2+) and “strong concentration-dependent stabilizing effect” in data set [5] (10 mM aspartate buffer with Zn2+ (2-50 mM)). Further, the oxytocin remained entry in data set [5] (10 mM aspartate buffer with Zn2+) is “Up to 75%”. In data set [5] (10 mM citrate, acetate or aspartate buffer with 10 or 20 mM Na+ or K+), the “thermal stability of oxytocin” value was “minor effects”. Also, the oxytocin stability entry is recorded as “only increased together with 50 mM Ca^2+” in data set [5] (50 mM citrate buffer with Ca2+); “only increased at 50 mM Mg^2+” in data set [5] (50 mM citrate buffer with Mg2+); “only increased at 50 mM Zn^2+” in data set [5] (50 mM citrate buffer with Zn2+); “Largest increases in stability” in data set [5] (5 or 10 mM citrate buffer and 50 mM Ca2+); “largest increases in stability” in data set [5] (5 or 10 mM citrate buffer and 50 mM Mg2+); “large increases in stability” in data set [5] (citrate buffer with 2 or 5 mM Zn2+). Moreover, in data set [5] (citrate, acetate or aspartate buffer, no divalent metal ions), the oxytocin stability entry is recorded as “small increase”. Moreover, the stability of tablets result in data set [1] is on record as “not stable”. Moreover, in data set [6], the “original amount of oxytocin preserved” value is given as “around 70%”. In addition, the “portion remained in monomeric form” value in data set [7] is “more than 80%”.
